Patent publication US20030044413A1, “Methods of limiting apoptosis of cells” (Regents of the University of Minnesota, priority 1998, published 2003)
Where two headings read alike, the source gives them in different places.

Columns and labels:
HeLa cells = assay: Okadaic acid-induced apoptosis, HeLa cells; format: cell-based, human
Experimental: HuH-7 cells were treated with 1 nM TGF-β1, 100 μM of either hyodeoxycholic acid, taurocholic acid, tauroursodeoxycholic acid (Sigma Chemical Co.) or glycoursodeoxycholic acid (Steraloids Inc., Wilton, N.H.), or a combination of TGF-β1 plus the individual bile acids for 72 h. HeLa and Cos-7 cells were incubated with 50 nM okadaic acid, 100 μM of either tauroursodeoxycholic acid or glycoursodeoxycholic acid, or a combination of okadaic acid plus the individual bile acids for 24 h. In the combination groups, cells were pretreated with the bile acid alone for 60 min prior to incuation with TGF-β1 or okadaic acid. In all studies, the medium was gently removed at the indicated times and scored for nonviable cells. The attached cells were fixed for morphologic evaluation of apoptosis.
Morphological evaluation of apoptosis. Morphology was performed as described previously (Oberhammer et al., Proc. Natl. Acad. Sci. USA 89, 5408-5412 (1992)). […] Fluorescence was visualized with a Zeiss standard fluorescence microscope (Carl Zeiss, Inc., Thornwood, N.Y.). […] Stained nuclei were scored by blind analysis and categorized according to the condensation and staining characteristics of chromatin. […] Three fields per dish of approximately 500 nuclei were counted; mean values are expressed as the percent of apoptotic nuclei.

Saos-2 cells = assay: FACS analysis of ΔΨm and ROS, Saos-2 cells; format: cell-based, human
Experimental: (§1) A ΔΨm and ROS measurement. ΔΨm and ROS production were measured by FACScan (Becton Dickinson) analysis. Freshly isolated rat hepatocytes were cultured for 3 h as described above and then incubated with William's E medium supplemented with either 100 μM DCA, 100 μM UDCA, equal molar amounts of both, or no bile acid (control), for 6 h. Rat hepatocytes were also cultured with either 1% ethanol, 100 μM UDCA, ethanol+UDCA, or no addition (control) for 4 h. HuH-7 cells, Hep G2 cells, and human osteogenic sarcoma Saos-2 cells were incubated with TGF-β1, anti-Fas antibody or okadaic acid, respectively, for 48 h under the same conditions as outlined above. For combination studies, cells were pretreated with UDCA or hyodeoxycholic acid for 60 min prior to addition of DCA, ethanol, TGF-β1, anti-Fas antibody or okadaic acid. Aliquots of 1.0×10^6 cells were incubated for 15 min at 37° C. with 50 nM 3,3′-dihexyloxacarbocyanine iodide [DiOC6(3)], 2 μM dihydroethidium (HE), or 5 μM 2′,7′-dichlorofluorescin diacetate (H2DCFDA; Molecular Probes, Inc. Eugene, Oreg.) and analyzed by cytofluorometry (Cathcart et al., Anal. Biochem., 134, 111-116 (1983); Zamzami et al., J. Exp. Med., 181, 1661-1672 (1 995); Carter et al., J. Leukocyte Biol., 55, 253-258 (1994)).
(§2) Rat primary hepatocytes were incubated with 100 μM DCA and 1% ETOH for 6 h and 4 h, respectively; HuH-7 cells with 1 nM TGF-β1 for 48 h; Hep G2 cells with 0.5 μg/ml anti-Fas antibody (CH-11) for 48 h, and Saos-2 cells with 50 nM okadaic acid (OA) for 48 h. In each combination group, cells were pretreated with 100 μM UDCA alone for 60 min prior to addition of the inducer. Aliquots of 1.0×10^6 cells were incubated for 15 min at 37° C. with 5 μM 2′,7′-dichlorofluorescin diacetate (H2DCFDA) and analyzed by cytofluorometry.

HuH-7 cells = assay: Annexin V-biotin assay (phosphatidylserine externalization); format: cell-based, human; details: 100 μM, 6 h
Experimental: Annexin V-Biotin assay. The annexin V-biotin apoptosis assay was performed on HuH-7 cells according to the manufacturer's recommendations (R & D Systems). […] The chromogenic signal generated from the binding of annexin V to exposed phosphatidylserine moieties was read at 450 nm using a microplate reader (Molecular Devices, Co., Menlo Park, Calif.).

[1] = Bile acid quantification by gas chromatography in primary rat hepatocytes; format: in vitro ADME; details: 6 h
Experimental: (§3) In parallel experiments, isolated rat hepatocytes (2×10^7 cells) and HuH-7 cells (2×10^6 cells) were incubated with 50 μM or 100 μM, respectively, of DCA, UDCA or DCA+UDCA for 6 h. Cells were washed 3 times with PBS, pH 7.4, harvested, centrifuged at 800×g for 5 min in a JS-4.0 Beckman rotor (Beckman Instruments, Inc., Schaumburg, Ill.) at 4° C., washed again, and the final pellet was flash-frozen in liquid nitrogen. Cells were then analyzed for intracellular bile acid concentrations by gas chromatography.
(§4) Bile acid quantification by gas chromatography. […] Quantification of bile acids was achieved using gas chromatography, by comparing the peak height response of the individual bile acids with the peak height response obtained from the internal standard, nordeoxycholic acid, which was added to each sample prior to bile acid extraction.

[2] = Bile acid quantification by gas chromatography in HuH-7 cells; format: in vitro ADME, human; details: 6 h
Experimental: as §3, §4

rat primary hepatocytes = assay: FACS analysis of ΔΨm and ROS, rat primary hepatocytes; format: cell-based; details: for Peroxides Production (%) Inducer + UDCA: 100 μM UDCA pretreatment 60 min; for inhibition at 100 µM: Rattus norvegicus, Hepatocyte, 100 μM UDCA, read-out: % Inhibition of peroxides production; for Inhibition % Superoxide Anion / Inhibition % _Ψm: inhibition by UDCA
Experimental: as §1, §2

[3] = test system: calcein-loaded isolated rat liver mitochondria; assay: MPT fluorimetric assay (calcein release)
Experimental: The fluorimetric assay was performed after loading the mitochondria with 10 μM calcein-acetoxymethyl ester (AM) (Molecular Probes Inc., Eugene, Oreg.) for 30 min at 37° C. in chelex-100 treated resuspension buffer before purification by sucrose-percoll gradient centrifugation (Botla et al., J. Pharmacol. Exp. Ther., 272, 930-938 (1995)). The assays were performed using calcein-loaded isolated mitochondria (1 mg protein/ml) in chelex-100-treated respiration buffer at 37° C. For the coincubation assays, the samples were preincubated for 10 min with 500 μM UDCA prior to addition of 200 μM DCA. The fluorescence of calcein was monitored by excitation and emission wavelengths of 490 nm and 515 nm, respectively, using a Perkin-Elmer luminescence spectrometer model LS-5B (Perkin-Elmer Ltd., Buckinghamshire, England).

[4] = incubated with 50 μM DCA and UDCA combined
[5] = incubated with 50 μM of the individual bile acid
[6] = coincubation with 100 μM DCA and UDCA
[7] = incubated with 100 μM of the individual bile acid
[8] = inducer OA, Saos-2, inhibition by UDCA

## C=C1[C@@H](O)[C@@H]2O[C@]3(CC[C@H](/C=C/[C@@H](C)[C@@H]4CC(C)=C[C@@]5(O[C@H](C[C@@](C)(O)C(=O)O)CC[C@H]5O)O4)O3)CC[C@H]2O[C@@H]1[C@@H](O)C[C@H](C)[C@H]1O[C@@]2(CCCCO2)CC[C@H]1C [okadaic acid]
HeLa cells; okadaic acid alone
  percent apoptosis: 50.0±14.9%
Saos-2 cells; 50 nM OA, 48 h, Saos-2
  Peroxides Production (%) Inducer: 15.0 ± 1.1%

## C[C@H](CCC(=O)O)[C@H]1CC[C@H]2[C@@H]3[C@@H](O)C[C@@H]4C[C@H](O)CC[C@]4(C)[C@H]3CC[C@]12C [UDCA, ursodeoxycholic acid]
HeLa cells; okadaic acid + UDCA
  percent apoptosis: 20.5±7.1%
HuH-7 cells
  optical density at 450 nm (annexin V binding) relative to controls: 0.08±0.02
[1]; [4]
  intracellular concentration of the bile acid: 263.8±39.3 nmol/10^8 cells
[1]; [5]
  intracellular concentration of the bile acid: 306.0±135.1 nmol/10^8 cells
[2]; [6]
  intracellular concentration of the bile acid: 45.5 ± 21.5 nmol
[2]; [7]
  intracellular concentration of the bile acid: 204.7±97.2 nmol/10^8cells
Rat primary hepatocytes; 100 μM DCA 6 h
  Peroxides Production (%) Inducer + UDCA: 4.4 ± 1.5 %
Rat primary hepatocytes; 1% ETOH 4 h
  Peroxides Production (%) Inducer + UDCA: 10.7 ± 3.6 %
Rat primary hepatocytes; inducer DCA, hepatocytes
  inhibition at 100 µM: 65.8 ± 12.4%
  Inhibition % Superoxide Anion: 93.5 ± 17.2%
  Inhibition % _Ψm: 60.2 ± 6.1 %
Rat primary hepatocytes; inducer ETOH, hepatocytes
  inhibition at 100 µM: 39.5 ± 12.6%
  Inhibition % Superoxide Anion: 86.6 ± 5.6%
  Inhibition % _Ψm: 61.7 ± 33.9%
Saos-2 cells; 50 nM OA 48 h, 100 μM UDCA pretreatment 60 min
  Peroxides Production (%) Inducer + UDCA: 5.4 ± 1.5 %
Saos-2 cells; Homo sapiens, inducer OA, Saos-2, 100 μM UDCA, read-out: % Inhibition of peroxides production
  inhibition at 100 µM: 64.6 ± 7.5%
Saos-2 cells; [8]
  Inhibition % Superoxide Anion: 77.6 ± 18.1%
  Inhibition % _Ψm: 21.9 ± 10.7 %
[3]; Rattus norvegicus, 200 μM DCA, 500 μM UDCA pretreatment 10 min, read-out: inhibition of DCA-induced calcein release
  inhibition at 500 µM: ~50%

## C[C@H](CCC(=O)O)[C@H]1CC[C@H]2[C@@H]3CC[C@@H]4C[C@H](O)CC[C@]4(C)[C@H]3C[C@H](O)[C@]12C [DCA, deoxycholic acid]
HuH-7 cells
  optical density at 450 nm (annexin V binding) relative to controls: 0.27±0.06
[1]; [4]
  intracellular concentration of the bile acid: 380.3±32.0 nmol/10^8 cells
[1]; [5]
  intracellular concentration of the bile acid: 49.5±9.9 nmol/10^8 cells
[2]; [6]
  intracellular concentration of the bile acid: 31.7 ± 15.0 nmol
[2]; [7]
  intracellular concentration of the bile acid: 28.8±13.3 nmol/10^8cells
Rat primary hepatocytes; 100 μM DCA, 6 h, hepatocytes
  Peroxides Production (%) Inducer: 12.8 ± 0.9%

## C[C@H](CCC(=O)O)[C@H]1CC[C@H]2[C@@H]3C[C@H](O)[C@@H]4C[C@H](O)CC[C@]4(C)[C@H]3CC[C@]12C [hyodeoxycholic acid]
[3]; 500 μM HDCA pretreatment
  effect on DCA-induced calcein release: did not decrease DCA-induced mitochondrial swelling (FIG. 8B) or prevent calcein release
